Measurements published in patent US20100137170A1, “DUAL USE WELL TREATMENT COMPOSITION” (JACAM CHEMICALS, LLC, priority 2008, published 2010).

Test: accelerated −30° F. storage test (crystal formation)
Assay type: physicochemical
Settings: 1.5% by volume in the Example composition
Method: Additional morpholine derivatives were also tested in lieu of the morpholine in the above table, at the same amount (1.5% by volume) and by the accelerated −30° F. storage test. These derivatives were N-methylmorpholine, N-ethylmorpholine, N-methylmorpholine oxide, and N-aminopropylmorpholine.

Row | result of accelerated storage test with derivative in lieu of morpholine | SMILES
1 | satisfactory results | CCN1CCOCC1 [N-ethylmorpholine]
2 | satisfactory results | C[N+]1([O-])CCOCC1 [N-methylmorpholine oxide]
3 | satisfactory results | CN1CCOCC1 [N-methylmorpholine]

Row | SMILES | result of accelerated storage test with derivative in lieu of morpholine
4 | NCCCN1CCOCC1 [N-aminopropylmorpholine] | satisfactory results

Test: substitute ingredients in lieu of morpholine in THP/THPS-amino phosophono chelant compositions (crystal deposition)
Assay type: physicochemical
Settings: ingredients employed alone and in various combinations in THP/THPS-amino phosophono chelant compositions
Source text: During the course of development of the present invention, a number of different ingredients were used in lieu of morpholine in THP/THPS-amino phosophono chelant compositions. None of these substitute materials were successful.

Row | crystal deposition of product with ingredient used in lieu of morpholine | SMILES
5 | prone to crystal deposition | N [ammonium hydroxide]
6 | prone to crystal deposition | CC(C)O [isopropyl alcohol]
7 | prone to crystal deposition | [Na+].[OH-] [sodium hydroxide]

Row | SMILES | crystal deposition of product with ingredient used in lieu of morpholine
8 | CO [methyl alcohol] | prone to crystal deposition
